Experiments:
[1] = biological target: Fibroblast growth factor receptor 4 (Homo sapiens, UniProt P22455); conditions: at 10 µM
[2] = biological target: T1, Serine/threonine-protein kinase Chk1 (Homo sapiens) (UniProt O14757); assay: Selectivity interaction (Ambit KINOMEscan and KiNATiv profiling in Jurkat cells) EUB0000090b CHEK1; assay type: cell-based; conditions: at 1 µM
T1 sequence (whole entry): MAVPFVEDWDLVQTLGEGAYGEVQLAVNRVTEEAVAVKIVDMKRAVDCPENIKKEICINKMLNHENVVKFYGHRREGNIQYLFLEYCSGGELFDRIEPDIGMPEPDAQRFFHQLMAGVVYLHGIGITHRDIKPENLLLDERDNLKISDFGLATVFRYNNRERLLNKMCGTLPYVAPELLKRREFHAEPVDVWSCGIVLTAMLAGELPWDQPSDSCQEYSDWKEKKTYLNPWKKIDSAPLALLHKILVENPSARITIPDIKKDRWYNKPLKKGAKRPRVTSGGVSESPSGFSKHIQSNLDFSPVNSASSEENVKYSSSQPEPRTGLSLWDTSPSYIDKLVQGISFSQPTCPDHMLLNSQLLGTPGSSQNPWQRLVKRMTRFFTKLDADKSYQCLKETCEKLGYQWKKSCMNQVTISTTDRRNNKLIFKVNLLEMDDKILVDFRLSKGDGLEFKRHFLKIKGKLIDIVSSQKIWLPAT

[3] = biological target: Tyrosine-protein kinase Lyn (Homo sapiens, UniProt P07948); assay: Selectivity interaction (ActivX KiNativ screen (kinase selectivity in THP-1 cell lysates)) EUB0000639a LYN; assay type: subcellular; conditions: lysate
[4] = biological target: Serine/threonine-protein kinase 10 (Homo sapiens) (UniProt O94804); assay: Selectivity interaction (ActivX KiNativ screen (kinase selectivity in THP-1 cell lysates)) EUB0000639a STK10; assay type: subcellular; conditions: lysate, at 5 µM
[5] = biological target: Bromodomain adjacent to zinc finger domain protein 2B (Homo sapiens) (UniProt Q9UIF8); assay: Selectivity interaction (Bromodomain panel (DSF asssay)) EUB0000270b BAZ2B
[6] = biological target: Mitotic checkpoint serine/threonine-protein kinase BUB1 (Homo sapiens, UniProt O43683)
[7] = biological target: Tyrosine-protein kinase Lck (Homo sapiens, UniProt P06239); assay: Selectivity interaction (KinomeScan (DiscoverX)) EUB0000695a LCK; conditions: at 100 nM
[8] = biological target: CDK4/Cyclin D3 (Homo sapiens) (UniProt P11802+P30281); assay: (§1) Selectivity interaction (KinomeScan (DiscoverX)) EUB0001079a CDK4; assay type: protein-complex assay; conditions: at 1 µM
[9] = biological target: Cyclin-dependent kinase 4/cyclin D1 (Homo sapiens) (UniProt P11802+P24385); assay: as §1; assay type: protein-complex assay; conditions: at 1 µM
[10] = biological target: T2, Protein kinase C epsilon type (Homo sapiens) (UniProt Q02156); assay: Selectivity interaction (ProQinase) EUB0000171b PRKCE
T2 sequence (whole entry): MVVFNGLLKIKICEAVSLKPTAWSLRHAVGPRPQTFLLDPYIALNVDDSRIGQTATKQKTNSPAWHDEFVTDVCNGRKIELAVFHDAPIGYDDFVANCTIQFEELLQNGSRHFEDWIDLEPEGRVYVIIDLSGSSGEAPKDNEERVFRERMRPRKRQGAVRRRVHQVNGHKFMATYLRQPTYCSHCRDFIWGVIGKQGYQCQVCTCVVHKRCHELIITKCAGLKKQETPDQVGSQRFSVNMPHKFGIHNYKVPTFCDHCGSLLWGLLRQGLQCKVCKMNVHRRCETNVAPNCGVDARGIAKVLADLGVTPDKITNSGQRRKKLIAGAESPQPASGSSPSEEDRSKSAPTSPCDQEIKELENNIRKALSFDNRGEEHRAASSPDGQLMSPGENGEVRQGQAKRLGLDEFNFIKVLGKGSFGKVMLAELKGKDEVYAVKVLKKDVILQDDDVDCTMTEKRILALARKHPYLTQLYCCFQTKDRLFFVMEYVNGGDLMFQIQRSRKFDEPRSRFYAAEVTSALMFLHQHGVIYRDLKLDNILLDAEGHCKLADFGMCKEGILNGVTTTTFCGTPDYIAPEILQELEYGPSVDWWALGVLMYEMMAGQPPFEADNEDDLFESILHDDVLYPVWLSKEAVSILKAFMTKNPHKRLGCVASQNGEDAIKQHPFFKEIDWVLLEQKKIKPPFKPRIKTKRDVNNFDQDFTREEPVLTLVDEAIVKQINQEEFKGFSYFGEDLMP

[11] = biological target: Angiopoietin-1 receptor (Homo sapiens) (UniProt Q02763); assay: Selectivity interaction (ProQinase) EUB0000171b TEK; conditions: at 5 µM
[12] = system: Tyrosine-protein kinase ABL1 (Homo sapiens), P00519 [F317I]; assay: Selectivity interaction (KinomeScan (DiscoverX)) EUB0000045b ABL1; conditions: at 1 µM
[13] = biological target: Platelet-derived growth factor receptor beta (Homo sapiens, UniProt P09619); assay: Selectivity interaction (KinomeScan (DiscoverX)) EUB0000607a PDGFRB; conditions: at 10 µM
[14] = biological target: T3, Serine/threonine-protein kinase 17A (Homo sapiens) (UniProt Q9UEE5); assay: Selectivity interaction (KinomeScan (DiscoverX)) EUB0000607a STK17A; conditions: at 10 µM
T3 sequence (whole entry): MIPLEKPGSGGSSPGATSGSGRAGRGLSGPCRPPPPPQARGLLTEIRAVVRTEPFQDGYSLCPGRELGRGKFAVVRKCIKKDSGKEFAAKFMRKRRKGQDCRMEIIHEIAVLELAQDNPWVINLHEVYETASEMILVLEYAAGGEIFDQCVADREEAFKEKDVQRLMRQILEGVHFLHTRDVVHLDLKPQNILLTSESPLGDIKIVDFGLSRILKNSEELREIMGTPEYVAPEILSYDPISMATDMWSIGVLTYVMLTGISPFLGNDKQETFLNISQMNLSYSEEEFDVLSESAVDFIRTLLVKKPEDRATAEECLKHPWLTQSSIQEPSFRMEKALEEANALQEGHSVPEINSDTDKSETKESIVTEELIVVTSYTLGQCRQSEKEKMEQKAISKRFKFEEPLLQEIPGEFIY

Sequence of Tyrosine-protein kinase Lyn (P07948 2-512 limits assumed): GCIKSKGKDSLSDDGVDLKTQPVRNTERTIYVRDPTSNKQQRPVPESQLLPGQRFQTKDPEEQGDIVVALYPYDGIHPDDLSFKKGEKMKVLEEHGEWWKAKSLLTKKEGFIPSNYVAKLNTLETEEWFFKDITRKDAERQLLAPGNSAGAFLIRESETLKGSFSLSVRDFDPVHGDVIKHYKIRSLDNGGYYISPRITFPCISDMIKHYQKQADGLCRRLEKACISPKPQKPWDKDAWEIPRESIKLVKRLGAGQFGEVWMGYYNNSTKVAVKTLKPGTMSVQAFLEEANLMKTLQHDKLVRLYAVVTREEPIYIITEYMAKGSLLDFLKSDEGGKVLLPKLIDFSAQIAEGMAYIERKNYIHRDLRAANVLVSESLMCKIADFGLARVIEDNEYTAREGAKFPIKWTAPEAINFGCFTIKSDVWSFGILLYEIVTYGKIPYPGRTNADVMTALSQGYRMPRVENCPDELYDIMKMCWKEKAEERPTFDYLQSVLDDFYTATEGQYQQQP
Sequence of Platelet-derived growth factor receptor beta (P09619 whole entry): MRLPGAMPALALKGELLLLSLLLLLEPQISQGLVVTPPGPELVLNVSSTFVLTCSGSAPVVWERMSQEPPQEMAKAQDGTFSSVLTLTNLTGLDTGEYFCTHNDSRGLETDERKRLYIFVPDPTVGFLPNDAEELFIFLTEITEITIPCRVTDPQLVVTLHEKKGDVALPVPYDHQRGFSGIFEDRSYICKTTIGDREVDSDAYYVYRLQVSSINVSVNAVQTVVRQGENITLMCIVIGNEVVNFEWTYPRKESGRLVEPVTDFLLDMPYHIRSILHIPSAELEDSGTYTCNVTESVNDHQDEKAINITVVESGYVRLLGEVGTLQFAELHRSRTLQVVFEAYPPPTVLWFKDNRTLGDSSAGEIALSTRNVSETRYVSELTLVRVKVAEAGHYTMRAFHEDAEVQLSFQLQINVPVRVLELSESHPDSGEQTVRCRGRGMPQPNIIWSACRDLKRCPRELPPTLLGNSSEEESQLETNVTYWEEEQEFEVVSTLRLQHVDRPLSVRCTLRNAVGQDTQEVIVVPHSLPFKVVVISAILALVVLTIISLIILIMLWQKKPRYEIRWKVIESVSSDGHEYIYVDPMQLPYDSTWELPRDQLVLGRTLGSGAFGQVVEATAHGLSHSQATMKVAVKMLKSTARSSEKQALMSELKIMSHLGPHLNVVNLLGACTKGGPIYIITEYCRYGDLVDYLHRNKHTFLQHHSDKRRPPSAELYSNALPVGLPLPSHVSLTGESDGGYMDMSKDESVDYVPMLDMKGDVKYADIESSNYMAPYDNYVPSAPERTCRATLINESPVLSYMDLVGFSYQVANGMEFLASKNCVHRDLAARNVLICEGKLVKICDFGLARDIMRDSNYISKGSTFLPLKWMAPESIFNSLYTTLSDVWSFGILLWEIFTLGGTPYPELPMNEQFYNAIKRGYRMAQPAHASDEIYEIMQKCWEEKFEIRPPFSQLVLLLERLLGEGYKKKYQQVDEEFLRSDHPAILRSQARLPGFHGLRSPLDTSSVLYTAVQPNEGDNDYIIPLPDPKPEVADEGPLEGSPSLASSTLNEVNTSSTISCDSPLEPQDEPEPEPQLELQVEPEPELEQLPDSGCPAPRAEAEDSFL
Sequence of Mitotic checkpoint serine/threonine-protein kinase BUB1 (O43683 whole entry): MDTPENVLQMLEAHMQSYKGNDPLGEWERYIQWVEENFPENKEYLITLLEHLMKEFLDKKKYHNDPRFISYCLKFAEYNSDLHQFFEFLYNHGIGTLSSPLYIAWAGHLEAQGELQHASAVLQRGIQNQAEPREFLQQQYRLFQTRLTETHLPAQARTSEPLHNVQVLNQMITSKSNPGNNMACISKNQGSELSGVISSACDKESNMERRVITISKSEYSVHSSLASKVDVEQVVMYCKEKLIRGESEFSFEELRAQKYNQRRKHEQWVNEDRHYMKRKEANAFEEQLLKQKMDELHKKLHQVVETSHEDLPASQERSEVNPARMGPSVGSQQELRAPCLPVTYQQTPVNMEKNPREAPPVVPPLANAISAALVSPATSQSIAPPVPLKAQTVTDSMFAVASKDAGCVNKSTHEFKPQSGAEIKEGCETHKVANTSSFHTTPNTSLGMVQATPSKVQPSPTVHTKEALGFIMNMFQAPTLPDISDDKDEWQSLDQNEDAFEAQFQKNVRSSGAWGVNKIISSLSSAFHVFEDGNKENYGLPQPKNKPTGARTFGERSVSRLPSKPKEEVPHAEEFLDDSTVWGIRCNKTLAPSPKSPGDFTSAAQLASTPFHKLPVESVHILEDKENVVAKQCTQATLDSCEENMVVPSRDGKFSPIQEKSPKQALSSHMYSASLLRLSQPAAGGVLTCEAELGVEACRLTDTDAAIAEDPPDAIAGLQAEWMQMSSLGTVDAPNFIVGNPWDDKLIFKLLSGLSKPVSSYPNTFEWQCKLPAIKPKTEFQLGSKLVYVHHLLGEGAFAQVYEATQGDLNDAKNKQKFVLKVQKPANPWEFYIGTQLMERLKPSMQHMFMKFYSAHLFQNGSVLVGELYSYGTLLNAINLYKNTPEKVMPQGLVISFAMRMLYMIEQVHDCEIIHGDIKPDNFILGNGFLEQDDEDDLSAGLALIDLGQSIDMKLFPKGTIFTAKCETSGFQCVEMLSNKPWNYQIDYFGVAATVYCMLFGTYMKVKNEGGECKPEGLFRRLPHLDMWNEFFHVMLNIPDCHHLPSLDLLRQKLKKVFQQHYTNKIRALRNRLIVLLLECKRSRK
Sequence of Bromodomain adjacent to zinc finger domain protein 2B (Homo sapiens) (Q9UIF8 whole entry, the tested form may be a part): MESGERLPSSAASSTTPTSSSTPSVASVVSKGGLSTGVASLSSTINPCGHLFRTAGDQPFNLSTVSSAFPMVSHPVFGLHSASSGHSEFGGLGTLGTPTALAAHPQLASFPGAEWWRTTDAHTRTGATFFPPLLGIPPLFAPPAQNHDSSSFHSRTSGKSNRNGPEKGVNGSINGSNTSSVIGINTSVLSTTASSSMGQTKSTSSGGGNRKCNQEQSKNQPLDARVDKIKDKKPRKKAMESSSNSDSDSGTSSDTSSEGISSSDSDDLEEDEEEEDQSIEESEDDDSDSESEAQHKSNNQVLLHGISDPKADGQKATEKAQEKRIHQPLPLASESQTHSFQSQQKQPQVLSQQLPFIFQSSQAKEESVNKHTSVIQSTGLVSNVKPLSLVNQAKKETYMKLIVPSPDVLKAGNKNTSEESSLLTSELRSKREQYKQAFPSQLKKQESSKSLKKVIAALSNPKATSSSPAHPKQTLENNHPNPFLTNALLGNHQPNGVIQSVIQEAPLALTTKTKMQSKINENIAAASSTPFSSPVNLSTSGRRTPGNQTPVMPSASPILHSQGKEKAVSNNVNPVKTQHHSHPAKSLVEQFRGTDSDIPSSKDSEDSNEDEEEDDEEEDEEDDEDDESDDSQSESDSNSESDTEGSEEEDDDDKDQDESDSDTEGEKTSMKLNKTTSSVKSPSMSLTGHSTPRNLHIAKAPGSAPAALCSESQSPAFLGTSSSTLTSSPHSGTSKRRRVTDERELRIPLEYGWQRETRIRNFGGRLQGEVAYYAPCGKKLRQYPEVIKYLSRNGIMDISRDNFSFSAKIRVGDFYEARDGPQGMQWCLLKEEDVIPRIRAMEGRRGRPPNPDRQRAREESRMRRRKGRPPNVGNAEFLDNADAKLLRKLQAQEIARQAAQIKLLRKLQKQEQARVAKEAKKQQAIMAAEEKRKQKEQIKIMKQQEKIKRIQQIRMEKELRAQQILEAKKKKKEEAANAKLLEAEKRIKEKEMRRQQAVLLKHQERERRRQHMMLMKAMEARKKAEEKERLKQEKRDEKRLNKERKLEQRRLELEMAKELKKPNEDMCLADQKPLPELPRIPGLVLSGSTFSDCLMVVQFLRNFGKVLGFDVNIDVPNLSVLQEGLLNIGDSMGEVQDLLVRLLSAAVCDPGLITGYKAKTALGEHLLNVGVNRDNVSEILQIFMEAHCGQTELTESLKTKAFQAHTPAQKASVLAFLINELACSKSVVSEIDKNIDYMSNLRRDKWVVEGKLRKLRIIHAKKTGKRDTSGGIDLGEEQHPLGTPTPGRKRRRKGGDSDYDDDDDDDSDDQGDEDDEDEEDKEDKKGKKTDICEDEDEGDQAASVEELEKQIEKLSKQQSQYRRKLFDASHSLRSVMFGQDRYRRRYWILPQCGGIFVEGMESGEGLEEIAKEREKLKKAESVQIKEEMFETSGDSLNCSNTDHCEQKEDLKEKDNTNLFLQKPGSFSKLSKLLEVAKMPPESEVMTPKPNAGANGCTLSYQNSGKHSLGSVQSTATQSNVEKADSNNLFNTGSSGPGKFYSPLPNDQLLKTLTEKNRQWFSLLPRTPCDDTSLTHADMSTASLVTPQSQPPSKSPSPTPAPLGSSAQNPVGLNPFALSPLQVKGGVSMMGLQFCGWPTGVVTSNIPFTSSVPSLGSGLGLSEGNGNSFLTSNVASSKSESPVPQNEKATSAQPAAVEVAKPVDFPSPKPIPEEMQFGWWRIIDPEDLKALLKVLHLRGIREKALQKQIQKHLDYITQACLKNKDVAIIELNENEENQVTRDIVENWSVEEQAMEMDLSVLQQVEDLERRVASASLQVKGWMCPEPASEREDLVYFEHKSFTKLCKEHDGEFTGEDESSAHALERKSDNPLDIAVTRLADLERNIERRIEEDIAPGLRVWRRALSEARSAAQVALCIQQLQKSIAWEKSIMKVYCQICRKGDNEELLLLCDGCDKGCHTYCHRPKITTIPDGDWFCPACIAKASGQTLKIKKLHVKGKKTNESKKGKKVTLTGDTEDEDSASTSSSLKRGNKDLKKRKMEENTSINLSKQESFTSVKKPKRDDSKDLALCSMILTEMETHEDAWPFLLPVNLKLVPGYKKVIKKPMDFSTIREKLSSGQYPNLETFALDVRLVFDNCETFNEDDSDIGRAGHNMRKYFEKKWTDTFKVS

Cc1cc([C@@H](C)Nc2ccccc2C(=O)O)c2nc(N3CCOCC3)cc(=O)n2c1 [AZD-6482]
% of control [1]: 100%

CN(C)C/C=C/C(=O)Nc1ccc(C(=O)N2CCCC(Nc3ncc(Cl)c(-c4c[nH]c5ccccc45)n3)C2)cc1 (centres undefined)
% of control [2]: 89%

CC[C@@H]1[C@H](F)C(=O)N[C@@H]1COc1nccc2cc(C(N)=O)c(OC)cc12 [ZIMLOVISERTIB]
% of inhibition ([3]; at 0.01 µM): 12.8%
% of inhibition ([3]; at 0.04 µM): -4.2%
% of inhibition ([3]; at 0.2 µM): 5.4%
% of inhibition ([3]; at 1 µM): 6%
% of inhibition ([3]; at 5 µM): 2.2%
% of inhibition [4]: -21.8%

Cc1cc(CN)cc(C)c1-c1ncn(C)c1-c1cncn1C
dTM [5]: -0.9 K

CCc1cccc(CC)c1NC(=O)c1nn(C)c2c1CCc1cnc(Nc3ccc(C(=O)NC4CCN(C)CC4)cc3OC(F)(F)F)nc1-2
IC50 [6]: > 10 µM

Cc1cc(F)c(C(=O)Nc2cccc(-c3nncn3C(C)C)n2)cc1-n1cnc(C2CC2)c1
% of control [7]: 86%

Nc1cnc(N2CCc3cc(S(=O)(=O)Nc4c(F)cc(Cl)cc4F)cc(N4CCCC4=O)c32)nc1 [TP-020n]
% of control [8]: 86%
% of control [9]: 97%

C=CC(=O)Nc1cccc(C(=O)Nc2ccc(Nc3cc(-c4[nH]c(SC)nc4C)ccn3)cc2)c1
% of control ([10]; at 1 µM): 97%
% of control ([10]; at 5 µM): 108%
% of control [11]: 96%

C=CC(=O)Nc1cc(-n2c(=O)ccc3cnc4ccc(-c5ccc(NS(C)(=O)=O)cc5)cc4c32)ccc1C
% of control [12]: 81%

CNC(=O)Nc1ccc(-c2nc(N3CC4CCC(C3)O4)c3cnn(C4CCC5(CC4)OCCO5)c3n2)cc1
% of control [13]: 89%
% of control [14]: 100%

Source: ChEMBL document CHEMBL5465560, “Selectivity Literature for EUbOPEN Chemogenomic Library” (2024)
